Experimental data: DBAASP
In brackets after ≈: the same amount, converted by molar mass.

Legend:
Test in all cases: ≥ marks a high value that may be exact or a test limit, other limits are often not marked, values filed in µg/mL are converted to µM
Staphylococcus aureus = tested on: Staphylococcus aureus
Pseudomonas aeruginosa = tested on: Pseudomonas aeruginosa
Escherichia coli = tested on: Escherichia coli
[1] = tested on: Escherichia coli ATCC 25922
[2] = tested on: Staphylococcus aureus ATCC 29213

| SMILES | MIC (Staphylococcus aureus) [µM] | MIC (Pseudomonas aeruginosa) [µM] | MIC (Escherichia coli) [µM] | MIC [1] [µM] | MIC [2] [µM] |
| --- | --- | --- | --- | --- | --- |
| CC[C@H](C)[C@H](NC(=O)CN)C(=O)N[C@@H](C)C(=O)N[C@@H](CCCCN)C(=O)N[C@@H](Cc1ccccc1)C(=O)NCC(=O)N[C@@H](CCCCN)C(=O)N[C@@H](C)C(=O)N[C@@H](C)C(=O)N[C@@H](C)C(=O)N[C@@H](Cc1cnc[nH]1)C(=O)N[C@@H](Cc1ccccc1)C(=O)NCC(=O)N[C@@H](CCCCN)C(=O)N[C@@H](CCCCN)C(=O)N[C@@H](Cc1c[nH]c2ccccc12)C(=O)N[C@H](C(=O)NCC(=O)N[C@@H](CCC(=O)O)C(=O)N[C@@H](CC(C)C)C(=O)N[C@@H](CCSC)C(=O)N[C@@H](CC(N)=O)C(=O)N[C@@H](CO)C(N)=O)C(C)C [GIAKFGKAAAHFGKKWVGELMNS] | > 75 | > 75 | 75 (≈ 184 µg/mL) | – | – |
| CC(=O)N[C@@H](CC(C)C)C(=O)N[C@@H](CCCCN)C(=O)N[C@@H](CCCCN)C(=O)N[C@@H](CC(C)C)C(=O)N[C@@H](CC(C)C)C(=O)N[C@@H](CCCCN)C(=O)N[C@@H](CC(C)C)C(=O)N[C@@H](CC(C)C)C(=O)N[C@@H](CCCCN)C(=O)N[C@@H](CCCCN)C(=O)N[C@@H](CC(C)C)C(=O)N1CCC[C@H]1C(=O)N[C@@H](CCCCN)C(=O)N[C@@H](CC(C)C)C(N)=O [LKKLLKLLKKLPKL] | – | – | – | 5 (≈ 8.59 µg/mL) | 10 (≈ 17.2 µg/mL) |
| CC(=O)N[C@@H](CC(C)C)C(=O)N[C@@H](CCCCN)C(=O)N[C@@H](CCCCN)C(=O)N[C@@H](CC(C)C)C(=O)N[C@@H](CC(C)C)C(=O)N[C@@H](CCCCN)C(=O)N[C@@H](CC(C)C)C(=O)N[C@@H](CC(C)C)C(=O)N1CCC[C@H]1C(=O)N[C@@H](CCCCN)C(=O)N[C@@H](CC(C)C)C(=O)N[C@@H](CC(C)C)C(=O)N[C@@H](CCCCN)C(=O)N[C@@H](CC(C)C)C(N)=O [LKKLLKLLPKLLKL] | – | – | – | 5 (≈ 8.51 µg/mL) | 2.5 (≈ 4.26 µg/mL) |

Second part, the molecule after the results:

| MIC (Staphylococcus aureus) [µM] | MIC (Pseudomonas aeruginosa) [µM] | MIC (Escherichia coli) [µM] | MIC [1] [µM] | MIC [2] [µM] | SMILES |
| --- | --- | --- | --- | --- | --- |
| 38 (≈ 95.3 µg/mL) | 76 (≈ 191 µg/mL) | 26.9 (≈ 67.4 µg/mL) | – | – | CC[C@H](C)[C@H](NC(=O)CN)C(=O)NCC(=O)N[C@@H](CCCCN)C(=O)N[C@@H](Cc1ccccc1)C(=O)N[C@H](C(=O)N[C@@H](Cc1cnc[nH]1)C(=O)N[C@@H](CO)C(=O)N[C@@H](C)C(=O)N[C@@H](CCCCN)C(=O)N[C@@H](CCCCN)C(=O)N[C@@H](Cc1ccccc1)C(=O)NCC(=O)N[C@@H](CCCCN)C(=O)N[C@@H](CC(C)C)C(=O)N[C@@H](Cc1ccccc1)C(=O)N[C@H](C(=O)NCC(=O)N[C@@H](CCC(=O)O)C(=O)N[C@H](C(=O)N[C@@H](CCSC)C(=O)N[C@@H](CC(N)=O)C(=O)N[C@@H](CO)C(N)=O)[C@@H](C)CC)C(C)C)[C@@H](C)CC [GIGKFIHSAKKFGKLFVGEIMNS] |
| – | – | – | > 80 | > 80 | CC(=O)N[C@@H](CCCCN)C(=O)N[C@@H](CC(C)C)C(=O)N[C@@H](CC(C)C)C(=O)N[C@@H](CCCCN)C(=O)N[C@@H](CC(C)C)C(=O)N[C@@H](CC(C)C)C(=O)N[C@@H](CCCCN)C(=O)N[C@@H](CCCCN)C(=O)N1CCC[C@H]1C(=O)N[C@@H](CC(C)C)C(=O)N[C@@H](CCCCN)C(=O)N[C@@H](CC(C)C)C(=O)N[C@@H](CC(C)C)C(=O)N[C@@H](CCCCN)C(N)=O [KLLKLLKKPLKLLK] |
| – | 4.27 (≈ 8 µg/mL) | – | – | – | CSCC[C@H](NC(=O)[C@@H](NC(=O)[C@H](CCCN=C(N)N)NC(=O)[C@H](Cc1ccccc1)NC(=O)[C@H](C)NC(=O)[C@H](C)NC(=O)[C@H](CCCCN)NC(=O)[C@H](CC(C)C)NC(=O)[C@H](Cc1c[nH]c2ccccc12)NC(=O)[C@H](C)NC(=O)[C@@H]1CCCN1C(=O)[C@@H](N)CCCN=C(N)N)C(C)C)C(=O)N[C@@H](CCCN=C(N)N)C(=O)N[C@@H](C)C(=O)N[C@@H](CS)C(=O)N[C@H](C(N)=O)C(C)C [RPAWLKAAFRVMRACV] |
| – | 1.96 (≈ 4 µg/mL) | – | – | – | NC(=O)[C@H](CCCN=C(N)N)NC(=O)[C@H](CCCN=C(N)N)NC(=O)[C@H](Cc1c[nH]c2ccccc12)NC(=O)[C@H](Cc1c[nH]c2ccccc12)NC(=O)[C@H](CCCN=C(N)N)NC(=O)[C@H](CCCN=C(N)N)NC(=O)[C@H](Cc1c[nH]c2ccccc12)NC(=O)[C@H](Cc1c[nH]c2ccccc12)NC(=O)[C@H](Cc1c[nH]c2ccccc12)NC(=O)[C@H](CCCN=C(N)N)NC(=O)[C@H](CCCN=C(N)N)NC(=O)[C@@H](N)CCCN=C(N)N [RRRWWWRRWWRR] |
